Assays:
SARS-CoV-2 = settings: cited from earlier work
COVID-19 patients [1] = assay: centhaquine (Lyfaquin) in COVID-19 patients; format: in vivo, human; settings: for slope of SpO2/FiO2 versus age of patient: basal slope −1.062
Method: The effect of centhaquine (Lyfaquin®) was determined COVID-19 patients. A significant improvement in oxygen saturation (SpO2) of COVID-19 patients by intravenous administration of centhaquine in the dose of 0.01 mg/kg was observed (FIG. 2). An improvement of SpO2 improved by 12.40 units within 2 hours of administration of centhaquine and further treatment with centhaquine led to an improvement of SpO2 by about 20 units.
We also determined the effect of age on the improvement in ratio of SpO2 and FiO2 (SpO2/FiO2) after administration of centhaquine (FIG. 3). […] Centhaquine (Lyfaquin®) improved SpO2/FiO2 in COVID-19 patients.
WHO Ordinal Scale was used to determine whether centhaquine (Lyfaquin®) improved the outcome of patients with COVID-19 (FIG. 5).

[2] = tested on: patients with hypovolemic shock; assay: combined / metanalysis of phase II and III trials in hypovolemic shock
From the text: In a 105-patient randomized, blinded, multicenter study (CTRI/2019/01/017196; NCT04045327) a total of 34 (22 male and 12 female) patients in control and 68 (41 male and 27 female) patients in centhaquine groups completed the study. […] In total 180 human subjects have been studied (combined phase I, II and III), out of which 155 were patients with hypovolemic shock.

healthy human subjects = assay: Phase I safety study (NCT02408731); format: in vivo
From the text: Centhaquine has been evaluated for its safety, sensitivity and toxicity in various species for single and multiple doses and acute as well as chronic exposure (33).
Centhaquine has been evaluated for its safety, sensitivity and toxicity in various species for single and multiple doses and acute as well as chronic exposure (33). […] Safety and efficacy of centhaquine is established (Phase I, phase II and phase III clinical studies)

swine model of shock = settings: in vivo; cited from earlier work
[3] = tested on: models of hypovolemic shock; settings: in vivo; cited from earlier work
[4] = tested on: patients with hypovolemic shock; assay: phase III randomized, blinded, multicenter study in hypovolemic shock (NCT04045327); format: in vivo, human
From the text: ARDS in Shock Patients (N=105): Acute Respiratory Distress Syndrome (ARDS) was compared between day 1 (before resuscitation) and day 3 of resuscitation. In control patients receiving standard treatment the difference between means was 0.04839±0.05696 (P=0.4023). On the other hand, in centhaquine treated group the ARDS difference between means was 0.1065±0.04464 (P=0.0202).
MODS in Shock Patients (N=105): Multiple Organ Dysfunction Score (MODS) was compared between day 3 and day 7 of resuscitation. There was no improvement in MODS in the control group and the difference between means was 0.00±0.2697 (P>0.999), whereas in centhaquine group the difference between means was 0.9091±0.1964 (P=0.0001).

[5] = tested on: swine model of in hospital cardiac arrest; settings: in vivo; cited from earlier work
[6] = tested on: patients with hypovolemic shock; assay: clinical phase II study in hypovolemic shock (NCT04056065); format: in vivo, human
[7] = tested on: SARS-CoV-2 viral load in nasopharyngeal swabs; settings: 600 mg daily; day 6 post inclusion compared to controls; cited from earlier work
COVID-19 patients [8] = settings: 13 patients; inhalation 10 mg; cited from earlier work

Question: With CCN(CC)CCCC(C)Nc1ccnc2cc(Cl)ccc12 (stereo not shown) [chloroquine] as the molecule, how does the “inhibition of SARS-CoV-2 in vitro” value (SARS-CoV-2) read?
Answer: effectively inhibit

Question: For Cc1cccc(N2CCN(CCc3ccc4ccccc4n3)CC2)c1 [centhaquine], which “slope of SpO2/FiO2 versus age of patient” value (COVID-19 patients [1]; at 2 hours of treatment) is on record?
Answer: −0.5905

Question: And the “slope of SpO2/FiO2 versus age of patient” value (COVID-19 patients [1]; at 4 hours of treatment)?
Answer: −0.2718

Question: What about the “improvement in WHO Ordinal Scale, mean difference” value (COVID-19 patients [1]; at 72 hours of resuscitation, N=10, p=0.0169) of the same molecule?
Answer: 0.7444

Question: And the “patients who did not need oxygen therapy” value (COVID-19 patients [1]; at 72 hours of treatment)?
Answer: Four out of 10

Question: What about the “improvement of oxygen saturation (SpO2)” value (COVID-19 patients [1]; further treatment with centhaquine) of the same molecule?
Answer: about 20 units

Question: What about the “improvement of SpO2/FiO2” value (COVID-19 patients [1]; in 4 hours) of the same molecule?
Answer: 41.42 units

Question: What about the “improvement of SpO2/FiO2” value (COVID-19 patients [1]; within 2 hours) of the same molecule?
Answer: 34.48 units

Question: And the “improvement of oxygen saturation (SpO2)” value (COVID-19 patients [1]; within 2 hours of intravenous centhaquine 0.01 mg/kg)?
Answer: 12.40 units

Question: And the mortality ([2]; 155 patients with hypovolemic shock, versus 9.68% with standard treatment)?
Answer: 2.15%

Question: And the mortality odds ratio ([2]; 155 patients, 95% CI 1.162-24.18, P=0.0190)?
Answer: 4.875

Question: And the ARDS scores ([2]; N=155)?
Answer: significantly improved

Question: What about the MODS score ([2]; N=155) of the same molecule?
Answer: significantly improved

Question: And the mortality ([2]; metanalysis of phase II and III trials, versus 10.71%)?
Answer: 2.20%

Question: What about the mortality odds ratio ([2]; metanalysis of phase II and III, 95% CI 1.27-26.50, p=0.0271) of the same molecule?
Answer: 5.340

Question: What about the safety and tolerability (healthy human subjects) of the same molecule?
Answer: safe and well tolerated

Question: And the “Horowitz index (PaO2/FiO2 ratio)” value (swine model of shock)?
Answer: improved

Question: And the pulmonary edema (swine model of shock)?
Answer: significantly reduced

Question: And the survival [3]?
Answer: improves survival

Question: What about the “ARDS difference between means” value ([4]; day 1 (before resuscitation) vs day 3 of resuscitation, P=0.0202) of the same molecule?
Answer: 0.1065±0.04464

Question: What about the blood lactate levels ([4]; day 3 of resuscitation, compared to control, P=0.046) of the same molecule?
Answer: significantly lower

Question: And the “MODS difference between means” value ([4]; day 3 vs day 7 of resuscitation, P=0.0001)?
Answer: 0.9091±0.1964

Question: What about the “adverse events related to centhaquine” value ([4]; phase III) of the same molecule?
Answer: NO adverse events

Question: What about the 28-day all-cause mortality ([4]; versus 11.76% with standard treatment, P=0.0742) of the same molecule?
Answer: 2.94%

Question: And the “efficacy as resuscitative agent” value [5]?
Answer: highly effective

Question: And the mortality ([6]; human, in vivo)?
Answer: reduced mortality

Question: And the use of vasopressors ([6]; human, in vivo)?
Answer: reduction in use of vasopressors

Question: What about the base-deficit ([6]; p<0.0001) of the same molecule?
Answer: highly significant efficacy

Question: What about the blood pressure ([6]; p<0.0001) of the same molecule?
Answer: highly significant efficacy

Question: What about the lactate levels ([6]; p=0.0012) of the same molecule?
Answer: highly significant efficacy

Question: And the “adverse events related to centhaquine” value ([6]; phase II)?
Answer: NO adverse events

Question: For CCN(CCO)CCCC(C)Nc1ccnc2cc(Cl)ccc12 (stereo not shown) [hydroxychloroquine], which viral carriage [7] is on record?
Answer: significant reduction

B1: plasminogen: plasminogen supplementation given by inhalation, 10 mg dissolved in 2 ml sterile water (protein, UniProt P00747 20-810, looked up)
Plasminogen: EPLDDYVNTQGASLFSVTKKQLGAGSIEECAAKCEEDEEFTCRAFQYHSKEQQCVIMAENRKSSIIIRMRDVVLFEKKVYLSECKTGNGKNYRGTMSKTKNGITCQKWSSTSPHRPRFSPATHPSEGLEENYCRNPDNDPQGPWCYTTDPEKRYDYCDILECEEECMHCSGENYDGKISKTMSGLECQAWDSQSPHAHGYIPSKFPNKNLKKNYCRNPDRELRPWCFTTDPNKRWELCDIPRCTTPPPSSGPTYQCLKGTGENYRGNVAVTVSGHTCQHWSAQTPHTHNRTPENFPCKNLDENYCRNPDGKRAPWCHTTNSQVRWEYCKIPSCDSSPVSTEQLAPTAPPELTPVVQDCYHGDGQSYRGTSSTTTTGKKCQSWSSMTPHRHQKTPENYPNAGLTMNYCRNPDADKGPWCFTTDPSVRWEYCNLKKCSGTEASVVAPPPVVLLPDVETPSEEDCMFGNGKGYRGKRATTVTGTPCQDWAAQEPHRHSIFTPETNPRAGLEKNYCRNPDGDVGGPWCYTTNPRKLYDYCDVPQCAAPSFDCGKPQVEPKKCPGRVVGGCVAHPHSWPWQVSLRTRFGMHFCGGTLISPEWVLTAAHCLEKSPRPSSYKVILGAHQEVNLEPHVQEIEVSRLFLEPTRKDIALLKLSSPAVITDKVIPACLPSPNYVVADRTECFITGWGETQGTFGAGLLKEAQLPVIENKVCNRYEFLNGRVQSTELCAGHLAGGTDSCQGDSGGPLVCFEKDKYILQGVTSWGLGCARPNKPGVYVRVSRFVTWIEGVMRNN
Question: Which “patients with improved oxygen saturation” value (COVID-19 patients [8]) does the source give for B1 here?
Answer: 6 patients

Question: What about the “patients with improvement in density of 'ground glass' opacity” value (COVID-19 patients [8]) of the same molecule?
Answer: 5 patients
